The target in experiment [1] is T1, α-Glucosidase (yeast) (Saccharomyces cerevisiae, UniProt P53341).
T1 construct: purchased Sigma
Put plainly: Alpha-glucosidase (yeast) inhibition assay, pH 7.4. In kind it is biochemical. The conditions noted are these: pH 7.4, read-out: Percent inhibition of α-glucosidase (yeast). As to the method:
(§1) Yeast alpha-glucosidase and almond beta-glucosidase activities were measured by a modification of the method of Evans, et al., Phytochemistry 22, 768-770 (1983). The modifications included (1) assay of activities at pH 7.4 in HEPES (N-2-hydroxyethylpiperazine-N'-2-ethanesulfonic acid) buffer, 2) measurement in 96 well microtiter plates and (3) inclusion of 10% DMSO in control and test samples.
(§2) The release of p-nitrophenol from the substrate p-nitrophenylglycoside was measured spectrophotometrically in the presence and absence of test compound. Each assay included a known inhibitor of the enzyme as a standard. IC50 values were determined for compounds which inhibited the enzymes more than 50% at a 1 millimolar concentration.
(§3) To 100 μl 50 mM HEPES buffer, pH 7.4, in a microtiter plate, add 20 μl test compound in DMSO (DMSO alone in control), 40 μl (0.013 units) yeast alpha-glucosidase (Sigma) in HEPES buffer and pre-incubate at room temperature for 15 minutes. Add 40 μl 1.25 mM p-nitrophenyl-alpha-D-glucopyranoside (Sigma) in HEPES buffer, as substrate, and monitor absorbance change at 405 nm in a Biotek EIA Autoreader. Absorption change was measured at 15 to 25 minutes (reaction was linear for at least 30 minutes). Each sample was tested in triplicate. IC50 values were determined from the linear portion of the log concentration vs % inhibition curve obtained from a minimum of 3 points. Deoxynojirimycin was used as standard inhibitor.

Experiment [2] has as its system β-Glucosidase (almond). Put plainly: Beta-glucosidase (almond) inhibitor assay, pH 4.8. In kind it is biochemical. As to the method:
as §1, §2
To 100 μl 50 mM sodium citrate buffer, pH 4.8, in a microtiter plate, add 15 μl test compound in DMSO (DMSO alone in control), 20 μl (0.017 units) beta-glucosidase (Sigma) in citrate buffer and pre-incubate at room temperature for 15 minutes. Add 25 μl 2.50 mM p-nitrophenyl-beta-D-glucopyranoside in citrate buffer, as substrate. Incubate at room temperature 20 minutes (reaction is linear for at least 30 minutes). Add 50 μl 0.4 M NaOH. Read absorption change at 405 nm in a Biotek EIA Autoreader. Each sample was tested in triplicate. IC50 values were determined from the linear portion of the log concentration vs % inhibition curve obtained from a minimum of 3 points. Castanospermine was used as standard inhibitor.

Experiment [3] has as its system β-Glucosidase (almond). Put plainly: Beta-glucosidase (almond) inhibition assay, pH 7.4. Format: biochemical. As to the method:
as §1, §2
as §3, with “μl (0.136” for “μl (0.013”, “units) beta-glucosidase” for “units) yeast alpha-glucosidase”, “mM p-nitrophenyl-beta-D-glucopyranoside” for “mM p-nitrophenyl-alpha-D-glucopyranoside (Sigma)”, “as substrate” for “as substrate,”, “(reaction is” for “(reaction was”, “points. Castanospermine” for “points. Deoxynojirimycin”

In experiment [4] the test system is visna virus. Put plainly: Inhibition of visna virus growth, plaque reduction assay in sheep choroid plexus (SCP) cells (Method A). The conditions noted are these: Visna-maedi virus; for inhibition at 1 µM: 0.001 mM; for inhibition at 10 µM: 0.01 mM; for inhibition at 100 µM: 0.1 mM; for inhibition at 1000 µM: 1.0 mM. Format: cell-based. The source says: Inhibitory activity against visna virus was shown by a conventional plaque reduction assay. Visna virus, a lentivirus genetically very similar to the AIDS virus, is pathogenic for sheep and goats. See Sonigo et al., Cell 42, 369-382 (1985); Haase, Nature 322, 130-136 (1986). Inhibition of visna virus replication in vitro as a useful model for HIV and its inhibition by test compounds has been described by Frank et al., Antimicrobial Agents and Chemotherapy 31 (9), 1369-1374 (1987).
Various illustrative compounds synthesized above were tested for inhibition of visna virus in vitro in a plaque reduction assay (Method A) or for inhibition of HIV-1 in a test which measured reduction of cyto-pathogenic effect in virus-infected syncytium-sensitive Leu-3a-positive CEM cells grown in tissue culture (Method B) as follows:
Sheep choroid plexus (SCP) cells were obtained from American Type Culture Collection (ATCC) catalogue number CRL 1700 and were routinely passaged in vitro in Dulbecco's Modified Eagles (DME) medium supplemented with 20% fetal bovine serum (FBS). SCP cells were passaged once per week at a 1:2 or 1:3 split ratio. Visna was titrated by plaque assay in six-well plates. Virus pools were stored at -70° C.
SCP cells were cultured in 6-well plates to confluence. Wells were washed two times with serum free Minimal Essential Medium (MEM) to remove FBS. 0.2 ml of virus was added per well in MEM supplemented with 4 mM glutamine and gentamycin. After 1 hour adsorption, the virus was aspirated from each well. The appropriate concentration of each compound in 5 ml of Medium 199 (M-199) supplemented with 2% lamb serum, 4 mM glutamine, 0.5% agarose and gentamycin was added to each well. Cultures were incubated at 37° C. in a humidified 5% CO2 incubator for 3-4 weeks. To terminate the test, cultures were fixed in 10% formalin, the agar removed, the monolayers stained with 1% crystal violet and plaques counted. Each compound concentration was run in triplicate. […] 0 is no toxicity observed while 4 is total lysing of the cell monolayer. […]
Control wells without virus were completed to determine the toxicity of compounds.
A general note: Plaque reduction counts the foci of infection that form in a cell layer.

The source of these data is patent US5612480A, “2-chloro and 2-bromo derivatives of 1,5-iminosugars” (priority 1995, dated 1997).

T1 sequence (P53341 whole entry): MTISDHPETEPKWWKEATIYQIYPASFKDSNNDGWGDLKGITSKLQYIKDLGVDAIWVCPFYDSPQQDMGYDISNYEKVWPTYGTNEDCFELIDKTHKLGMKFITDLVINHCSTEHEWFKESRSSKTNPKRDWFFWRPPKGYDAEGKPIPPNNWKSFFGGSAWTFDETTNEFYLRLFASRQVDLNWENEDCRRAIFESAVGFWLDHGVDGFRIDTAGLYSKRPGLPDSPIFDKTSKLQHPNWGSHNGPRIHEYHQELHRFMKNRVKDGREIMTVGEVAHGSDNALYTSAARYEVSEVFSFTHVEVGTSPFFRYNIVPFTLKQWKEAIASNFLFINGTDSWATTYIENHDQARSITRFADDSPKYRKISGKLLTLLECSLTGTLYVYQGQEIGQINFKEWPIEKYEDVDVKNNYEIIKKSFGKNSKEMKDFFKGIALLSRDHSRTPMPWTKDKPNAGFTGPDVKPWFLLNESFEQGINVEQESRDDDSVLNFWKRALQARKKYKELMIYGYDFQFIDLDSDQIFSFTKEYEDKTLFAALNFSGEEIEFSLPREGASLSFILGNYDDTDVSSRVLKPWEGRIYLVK

Consider `CCCCN1C[C@H](Sc2nnnn2C)[C@@H](O)[C@H](O)[C@H]1CO` [56(a), 1,5-(Butylimino)-1,5-dideoxy-2-S-(1-methyl-1H-tetrazol-5-yl) 2-thio-D-glucitol], for which, in experiment [1], the inhibition at 100 µM came out at 18.1%. For the same compound, the inhibition at 1000 µM in experiment [1] is -8.2%. The “Percent inhibition of β-glucosidase (almond)” value (from here on “Percent inhibition”) in experiment [2] (100 μM) was -0.9%; in experiment [2] (1000 μM), 13.7%; in experiment [3] (100 μM) it was -3.4%; in experiment [3] (1000 μM), -15.8%.

For the compound `CCCCN1[C@H](CO)[C@@H](O)[C@H](O)[C@H]1CSc1nnnn1C` [56(b), 2,5-(Butylimino)-2,5-dideoxy-1S-(1-methyl-1H-tetrazol-5-yl) 1-thio-D-mannitol], in experiment [1], the inhibition at 100 µM amounted to 15.6%. The inhibition at 1000 µM in experiment [1] was 15.7%. The “Percent inhibition” value in experiment [2] (100 μM) is on record as 7.5%; in experiment [2] (1000 μM), 29.4%; in experiment [3] (100 μM) it was -6%; in experiment [3] (1000 μM), 5.7%.

For the compound `OC[C@@H]1[C@@H](O)[C@H](O)[C@@H](Cl)CN1Cc1ccccc1` [Example 32, 2-Chloro-1,2,5-trideoxy-1,5-(phenylmethyl)imino-D-glucitol], in experiment [4], the inhibition at 1 µM is 12%, the inhibition at 10 µM was -3% and the inhibition at 100 µM came to 28%.

For `CCCCN1C[C@H](OC(=O)OCC(C)C)[C@@H](O)[C@H](O)[C@H]1CO` [Example 34, 1,5-(Butylimino)-1,5-dideoxy-D-glucitol, 2-[(2-methylpropyl)-carbonate]], in experiment [4], the inhibition at 1 µM is -2%, the inhibition at 10 µM was determined as 7%, the inhibition at 100 µM turned out to be 89% and the inhibition at 1000 µM was 100%.

For the compound `CCCCN1C[C@H](OC(=O)Nc2ccccc2)[C@@H](O)[C@H](O)[C@H]1CO` [Example 35], in experiment [4], the inhibition at 10 µM was found to be 31% and the inhibition at 100 µM came to 41%.

In the case of `CCCCN1C[C@H](Cl)[C@@H](OC(C)=O)[C@H](OC(C)=O)[C@H]1COC(C)=O` [Example 38, 1,5-(Butylimino)-2-chloro-1,2,5-trideoxy-D-glucitol, triacetate], in experiment [4], the inhibition at 10 µM was 61%, the inhibition at 100 µM was found to be 86% and the inhibition at 1000 µM was 97%.

In the case of `CC(=O)OC[C@@H]1[C@@H](OC(C)=O)[C@H](OC(C)=O)[C@@H](Cl)CN1CCCc1ccccc1` [Example 39, 2-Chloro-1,2,5-trideoxy-1,5-(3-phenyl)propylimino-D-glucitol, triacetate], the inhibition at 0.5 µM in experiment [4] (0.0005 mM) is 44%. In addition, the inhibition at 5 µM in experiment [4] (0.005 mM) turned out to be 58%. In addition, in experiment [4] (0.05 mM), the inhibition at 50 µM is 98%.

On to `CCCCN1C[C@H](Cl)[C@@H](OC(=O)CCC)[C@H](OC(=O)CCC)[C@H]1COC(=O)CCC` [Example 40, 1,5-(Butylimino)-2-chloro-1,2,5-trideoxy-D-glucitrol, tributyrate], for which, in experiment [4], the inhibition at 1 µM is 0%, the inhibition at 10 µM was determined as 24% and the inhibition at 100 µM came to 77%.

As for `CCCCN1C[C@H]2O[C@H]2[C@H](OC(C)=O)[C@H]1COC(C)=O` [Example 45, 2,3-Anhydro-1,5-(butylimino)-1,5-dideoxy-D-mannitol, diacetate], in experiment [4], the inhibition at 10 µM was found to be 5%, the inhibition at 100 µM came out at 44% and the inhibition at 1000 µM turned out to be 85%.

Turning to `CCCCN1[C@H](CN)[C@@H](O)[C@H](O)[C@H]1CO` [Example 48, 1-Amino-2,5-(butylimino)-1,2,5-trideoxy-D-mannitol], the inhibition at 100 µM in experiment [1] was determined as 24.6%. The inhibition at 1000 µM in experiment [1] amounted to 60.9%. Also, the “Percent inhibition” value in experiment [2] (100 μM) turned out to be 9.5%; in experiment [2] (1000 μM), 27.9%; in experiment [3] (100 μM), 6.9%; in experiment [3] (1000 μM) it was 43.1%.

As to `CCCCN(CCCC)C[C@@H]1[C@@H](O)[C@H](O)[C@@H](CO)N1CCCC` [Example 49, 2,5-(Butylimino)-1-(dibutylamino)-1,2,5-trideoxy-D-mannitol], the inhibition at 100 µM in experiment [1] is -12.6%. For the same compound, in experiment [1], the inhibition at 1000 µM was -20.5%. Further, the “Percent inhibition” value is listed as 10.9% in experiment [2] (100 μM), 18.8% in experiment [2] (1000 μM), -5.3% in experiment [3] (100 μM) and 0.2% in experiment [3] (1000 μM).

Take `CCCCN1[C@H](CO)[C@@H](O)[C@H](O)[C@H]1CNC(C)=O` [Example 51, 1-(Acetylamino)-2,5-(butylimino)-1,2,5-trideoxy-D-mannitol]: in experiment [1], the inhibition at 100 µM was 27.1%. Further, the inhibition at 1000 µM in experiment [1] worked out at 39.3%. In addition, the “Percent inhibition” value was 6% in experiment [2] (100 μM), 26% in experiment [2] (1000 μM), -3.8% in experiment [3] (100 μM) and 4.4% in experiment [3] (1000 μM).

For `CCCCN1C[C@H](C#N)[C@@H](O)[C@H](O)[C@H]1CO` [Example 53, 1,5-(Butylimino)-2-cyano-1,2,5-trideoxy-D-glucitol], in experiment [1], the inhibition at 100 µM is 20.1%. Also, in experiment [1], the inhibition at 1000 µM is -29.4%. In addition, the “Percent inhibition” value is 1.6% in experiment [2] (100 μM), 9.5% in experiment [2] (1000 μM), -4.2% in experiment [3] (100 μM) and -7.3% in experiment [3] (1000 μM).

As to `CCCCN1[C@H](CO)[C@@H](O)[C@H](O)[C@H]1CC#N` [Example 54, 3,6-(Butylimino)-2,3,6-trideoxy-D-manno-heptanonitrile], the inhibition at 100 µM in experiment [1] was determined as 23.5%. Also, the inhibition at 1000 µM in experiment [1] was found to be 22.6%. Moreover, the “Percent inhibition” value in experiment [2] (100 μM) was 0.1%; in experiment [2] (1000 μM), 4.1%; in experiment [3] (100 μM) it was -7.8%; in experiment [3] (1000 μM) it was -7.9%.

On to `CCCCN1[C@H](CO)[C@@H](O)[C@H](O)[C@H]1COC(=O)c1ccccc1` [Example 58, 2,5-(Butylimino)-2,5-dideoxy-D-mannitol, 1-benzoate], for which, in experiment [1], the inhibition at 100 µM stood at 36.2%. In addition, the inhibition at 1000 µM in experiment [1] amounted to 44%. Besides, the “Percent inhibition” value in experiment [2] (100 μM) is recorded as 1.8%; in experiment [2] (1000 μM), 18.6%; in experiment [3] (100 μM) it was -7.5%; in experiment [3] (1000 μM), 13.2%.

Usually inhibition stands for the drop in the measured response relative to a control, in per cent.
